# Data from patent publication US8143262B2, “7-(3′,4′-Dialkoxyphenyl)[1,2,4]-triazolo[1,5-A]pyrimidine compounds, process for preparing thereof, and pharmaceutical composition for treating or preventing asthma, chronic obstructive pulmonary disease, arthritis, atopic dermatitis, tumor and degenerative brain diseases comprising the same” (Korea Research Institute of Chemical Technology, priority 2007, dated 2012).
# Legend:
# [1] = tested on: PDE-4; conditions: background art; read-out: IC50 of inhibiting PDE-4; cited from earlier work
# [2] = biological target: T1, Human PDE-4d (Homo sapiens, UniProt Q08499); experiment: Inhibition of PDE-4 activity ([3H]cAMP hydrolysis, recombinant catalytic domain); type: biochemical; conditions: for IC50: PDE4d 1 nM, cAMP 250 nM, 34° C., 45 minutes, read-out: IC50 against PDE-4 enzyme; for activity on inhibiting PDE-4 (in words): comment on Table 2
# T1 construct: The catalytic domain of PDE4d was cloned to pGEX4T3 (APBiotech) as GST fusion expression vector; GST (N); made in house; host or cells: E. coli BL21, DE3
# Procedure: Experiment of inhibiting PDE-4 activity was carried out by modifying the method of Loughney (Loughney et al., Journal of Biological Chemistry, 1996, 271(2), 796-806). Human PDE-4d prepared by means of gene recombination technology was used as PDE-4d
# The catalytic domain of PDE4d was cloned to pGEX4T3 (APBiotech) as GST fusion expression vector, and then PDE4d gene was transformed to E. coli BL21, DE3. The strain was cultured at 37° C. in LB medium, and when OD reached about 0.3˜0.5, the temperature was lowered to 18° C. to induce expression of PDE4d by using 0.5 mM IPTG. After 15 hours from induction of the expression, cells with PDE4d expressed were recovered. The cells were suspended in a buffer solution (50 mM Tris, pH 8.0, 0.4M NaCl, 5 mM DTT), and crushed, centrifuged and purified. The columns used for the purification were Q-cephalose (APBiotech), Glutanione-cephalose (APBiotech) and Superdex200 gel permeation chromatography (APBiotech), in this order.
# In order to measure the ability of individual compound to inhibit PDE4d activity, PDE4d 1 nM and cAMP (Sigma) 250 nM as substrate were added to the reaction buffer (50 mM Tris-HCl (pH 7.5) and 4 mM MgCl2), and individual compound obtained from Example 1 was added in a concentration from 1 to 50 μM thereto, and the mixture was reacted at 34° C. for 45 minutes. Total reaction solution was 60 μl. As to cAMP, a mixture with the ratio of [^3H]cAMP (Amersham, 1 μCi/μl) to cAMP (hot:cold, that is, isotope:non-isotope) being 1:200 was used. Then, the reaction was quenched by heating at 95° C. for 2 minutes. After cooling the mixture for 3 minutes, 1 mg/ml of Snake Venome (Sigma V0376) (30 μl) was added thereto. After reacting at 34° C. for 30 minutes, 30 μl of the reaction mixture was added to 250 μl of DOWEX 1×2-100 ion exchange resin (Aldrich, previously mixed with distilled water in a ratio of 1:1.6) by portions, and the mixture was vigorously stirred for 2 minutes. After settling the resin down, the supernatant (130 μl) was added to 2 ml of scintillation cocktail (Packard), and the mixture was thoroughly mixed, and then measured by using beta-counter. With respect to the enzyme activity of control group (experiment carried out without adding compound of Chemical Formula (1)), the concentration of each test compound to inhibit 50% of enzyme activity was determined as IC50.
# [3] = tested on: OVA-sensitized C57BL/6J mice; experiment: Airway hyper-responsiveness (Penh, whole body plethysmography) after methacholine in OVA-sensitized mice; type: in vivo, mouse; conditions: oral, 100 mg/kg; versus Roflumilast 100 mg/kg oral
# Procedure: (§1) For animal test in vivo, 8-9 week old male C57BL/6J mice having body weight of 20-25 g were used as the test animal. For sensitization and challenge of airway and lung by ovalbumin (OVA), OVA mixed with Al(OH)3 was administered intraperitoneally to cause first sensitization, and second sensitization after 10 days from the first sensitization. After 6 days from the second sensitization, the animals were inhaled with 5% OVA via nebulizer for 3 days. Administration of medicine to the sensitized mice was carried out intraorally (po), three times one hour before every inhalation of OVA. To the control group, 0.5% CMC was administered.
# The analysis of airway hyper-responsiveness (AHR) was carried out by using a whole body plethysmographer with a living animal.
# After 48 hours from inhalation of OVA, the animal was inhaled with methacholine (Mch) by means of nebulizer. Responsiveness of airway due to Mch was evaluated by enhanced pause (Penh) value on capability of respiration through airway by means of whole body plethysmography, and compared with control medicine.
# [4] = tested on: OVA-sensitized C57BL/6J mice; experiment: Eosinophil peroxidase activity (EPO activity) in bronchoalveolar washing of OVA-sensitized mice; type: in vivo, mouse; conditions: oral, 5, 50, 100 and 300 mg/kg
# Procedure: as §1
# In order to observe cell activity and cell constitution in the washing solution of mouse bronchus alveolus, the animal was inhaled with OVA. After 62 hours, the mouse was anesthetized and the cervicothoracic region was open. A tube containing 0.8 ml of PBS was inserted to the bronchus, and PBS was injected. After massaging the chest for about 30 seconds, cell suspension was obtained from the lung. The cells obtained were centrifuged with 400×g. […] For the measurement of EPO activity, the cell suspension ([…]) was reacted with 0.1 mM OPD, 0.05 M Tris-HCl (pH 8.0), Triton X-100 and 1 mM H2 O2, and then absorbance at 492 nm was measured.
# [5] = tested on: ferrets; experiment: Test of side-effect related to emesis in ferrets; type: in vivo; conditions: ferret, 7 mg/kg
# Procedure: Male ferrets having the body weight of about 1.5˜2 kg, purchased from Marshal, were classified into the groups: control, yohimbine, #102-500 mg/kg and #102-1000 mg/kg treated groups. For three animals in each group, the medicine dissolved in 0.5% CMC at a concentration of 500 and 1000 mg/kg was orally administered. During 3 hours after then, the number of vomiting for each animal, and the number of animals showing salivation and diarrhea were measured by visual observation.
# T1 sequence (Q08499 386-715 limits assumed): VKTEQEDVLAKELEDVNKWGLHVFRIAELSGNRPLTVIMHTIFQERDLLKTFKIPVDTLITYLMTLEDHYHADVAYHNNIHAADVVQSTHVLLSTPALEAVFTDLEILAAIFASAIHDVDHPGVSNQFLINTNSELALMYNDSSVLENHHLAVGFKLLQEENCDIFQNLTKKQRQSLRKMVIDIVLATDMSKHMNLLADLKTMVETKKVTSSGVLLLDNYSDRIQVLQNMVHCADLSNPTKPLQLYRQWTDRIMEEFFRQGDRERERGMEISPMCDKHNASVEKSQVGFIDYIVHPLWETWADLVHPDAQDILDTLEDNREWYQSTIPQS
Structure (SMILES),IC50 [2] [nM],other results
O=C(Nc1c(Cl)cncc1Cl)c1ccc(OC(F)F)c(OCC2CC2)c1 [Roflumilast],–,IC50 [1]: 0.8 nM
"[O-][n+]1cccc(-c2nc3nccc(-c4ccc(OC(F)F)c(OCC5CC5)c4)n3n2)c1 [Compound 102, 3-[7-{3-(cyclopropylmethoxy)-4-(difluoromethoxy)phenyl}-[1,2,4]triazolo[1,5-a]pyrimidine-2-yl]-pyridine-N-oxide]",74,"effect of treating asthma: degree of airway contraction by enhanced pause (Penh) value [3]: far superior effect of treating asthma to the control compound, Roflumilast; eosinophil peroxidase activity (EPO activity) [4]: excellent effect"
COC(=O)[C@@H]1[C@H]2C[C@H]3c4[nH]c5ccccc5c4CCN3C[C@@H]2CC[C@@H]1O [yohimbine],–,animals showing salivation and diarrhea [5]: 66%; vomiting symptoms (number of vomiting per animal) ([5]; observed in all ferrets used): average twice
"FC(F)Oc1ccc(-c2ccnc3nc(-c4cccc(Cl)c4)nn23)cc1OCC1CC1 [Compound 120, 2-(3-Chlorophenyl)-7-[3-(cyclopropylmethoxy)-4-(difluoromethoxy)phenyl]-[1,2,4]triazolo[1,5-a]pyrimidine]",40,–
"Fc1cccc(-c2nc3nccc(-c4ccc(OC(F)F)c(OCC5CC5)c4)n3n2)c1 [Compound 106, 7-[3-(Cyclopropylmethoxy)-4-(difluoromethoxy)phenyl]-2-(3-fluorophenyl)-[1,2,4]triazolo[1,5-a]pyrimidine]",23,–
"[O-][n+]1cccc(-c2nc3nccc(-c4ccc(OC(F)F)c(OC(F)F)c4)n3n2)c1 [Compound 130, 3-[7-(3,4-Bis-difluoromethoxyphenyl)-[1,2,4]triazolo[1,5-a]pyrimidine-2-yl]-pyridine-N-oxide]",250,–
"CSc1ccc(-c2nc3nccc(-c4ccc(OC(F)F)c(OCC5CC5)c4)n3n2)cc1 [Compound 140, 7-[3-(Cyclopropylmethoxy)-4-(difluoromethoxy)phenyl]-2-(4-methylthiophenyl)-[1,2,4]triazolo[1,5-a]pyrimidine]",35,–
"FC(F)Oc1ccc(-c2ccnc3nc(-c4cccc(I)c4)nn23)cc1OCC1CC1 [Compound 126, 7-[3-(Cyclopropylmethoxy)-4-(difluoromethoxy)phenyl]-2-(3-iodophenyl)-[1,2,4]triazolo[1,5-a]pyrimidine]",5,activity on inhibiting PDE-4 (in words) [2]: most excellent activity
"COc1ccc(-c2ccnc3nc(-c4cccc(C#N)c4)nn23)cc1OC1CCCC1 [Compound 129, 7-[3-(Cyclopentoxy)-4-methoxyphenyl]-2-(3-cyanophenyl)-[1,2,4]triazolo[1,5-a]pyrimidine]",13,–
"FC(F)Oc1ccc(-c2ccnc3nc(-c4cccnc4)nn23)cc1OC(F)F [Compound 114, 7-(3,4-Bis-difluoromethoxyphenyl)-2-pyridin-3-yl[1,2,4]triazolo[1,5-a]pyrimidine]",170,–
"N#Cc1cccc(-c2nc3nccc(-c4ccc(OC(F)F)c(OCC5CC5)c4)n3n2)c1 [Compound 115, 2-(3-Cyanophenyl)-7-[3-(cyclopropylmethoxy)-4-(difluoromethoxy)phenyl]-[1,2,4]triazolo[1,5-a]pyrimidine]",10,activity on inhibiting PDE-4 (in words) [2]: excellent activity on inhibiting PDE-4
"FC(F)Oc1ccc(-c2ccnc3nc(-c4ccc(I)cc4)nn23)cc1OCC1CC1 [Compound 127, 7-[3-(Cyclopropylmethoxy)-4-(difluoromethoxy)phenyl]-2-(4-iodophenyl)-[1,2,4]triazolo[1,5-a]pyrimidine]",50,–
"[O-][n+]1cccc(-c2nc3nccc(-c4ccc(OC(F)F)c(OCC5CC5)c4)n3n2)c1Cl [Compound 109, 3-[7-{3-(Cyclopropylmethoxy)-4-(difluoromethoxy)phenyl}-[1,2,4]triazolo[1,5-a]pyrimidine-2-yl]-2-Chloropyridine-N-oxide]",160,–
"Cc1ccc(-c2nc3nccc(-c4ccc(OC(F)F)c(OCC5CC5)c4)n3n2)c(C)c1 [Compound 136, 7-[3-(Cyclopropylmethoxy)-4-(difluoromethoxy)phenyl]-2-(2,4-dimethylphenyl)-[1,2,4]triazolo[1,5-a]pyrimidine]",60,–
"COc1cc(-c2nc3nccc(-c4ccc(OC(F)F)c(OCC5CC5)c4)n3n2)ccc1C [Compound 134, 7-[3-(Cyclopropylmethoxy)-4-(difluoromethoxy)phenyl]-2-(3-methoxy-4-methylphenyl)-[1,2,4]triazolo[1,5-a]pyrimidine]",40,–
